According to patent US20150093744A1 (priority 2013, published 2015):
“And” between values parts separate entries of the source, which are not always exact repeats. Equal entries are not always repeated. Where two headings read alike, the source gives them in different places.

Legend:
Tulane virus (TV) [1] = system: Tulane virus (TV)
[2] = system: Tulane virus capsid binding to Human Blood Group Antigen (HBGA) receptor
Tulane virus (TV) [3] = system: Tulane virus (TV); remark: listed apart in the source
MNV = details: cited from earlier work
FCV = details: cited from earlier work
Tulane virus (TV) [4] = system: Tulane virus (TV); remark: listed apart in the source
TV = details: cited from earlier work

Structure (SMILES): CCO [EtOH, ethanol]
- detection of virus genome or amplification of virus (Tulane virus (TV) [1]): neither virus genome nor amplification of virus was detectable
- Binding of viral capsid to Human Blood Group Antigen (HBGA) [2]: significantly reduced
- reduction of TV titer (Tulane virus (TV) [3]): over 99.5%
- EtOH concentration required to exceed 4 D reduction in virus titer (MNV): 60%
- EtOH concentration required to exceed 4 D reduction in virus titer (FCV): 70%
- Ct (HuNoV (GII.4 NoV)): 40.7 ± 1.4
- Reduction(%) (HuNoV (GII.4 NoV)): 99.3 ± 0.8%
- completeness of inactivation of HuNoV (HuNoV (GII.4 NoV)): not complete
- reduction in copy number (HuNoV (GII.4 NoV)): 99.33% and 88.5% and 99.3%
- reduction in copy numbers (HuNoV (GII.4 NoV)): < 3 log
- ΔCt (HuNoV (GII.4 NoV)): 9.7
- detection of virus genome or amplification of virus (Tulane virus (TV) [4]): neither virus genome nor amplification of virus was detectable
- EtOH concentration required to exceed 4 D reduction in virus titer (TV): 50-70%
